{
  "source": "patent US20140248252A1",
  "about": "“New Salt And Medical Use” (Pfizer Limited, priority 2011, published 2014)",
  "key": {"uric acid in blood [1]": {"system": "uric acid in blood", "assay": "Single dose study: uric acid in blood of healthy subjects (colorimetric assay kit)", "assay_type": "in vivo, human", "conditions": "fasted", "method": "(§1) Uric acid measurements were performed using a commercial colorimetric assay kit (Beckman Coulter).\nSingle doses of 4-[2-(5-amino-1H-pyrazol-4-yl)-4-chlorophenoxy]-5-chloro-2-fluoro-N-(1,3-thiazol-4-yl)benzenesulfonamide SDD (‘SDD’) dispersion for oral administration, ranging from 10 mg to 2400 mg, were investigated. In addition, single doses of 4-[2-(5-amino-1H-pyrazol-4-yl)-4-chlorophenoxy]-5-chloro-2-fluoro-N-(1,3-thiazol-4-yl)benzenesulfonamide tosylate (‘TS’) dispersion for oral administration, ranging from 200 mg to 1000 mg, were also investigated.\nThe following doses were investigated and all doses were given in the fasted state with the exception of 200 mg and 1000 mg SDD dispersions, which were given in both the fasted state and after a high-fat meal (‘fed’).\nA total of 61 subjects (all male) participated and all received at least one dose of SDD or TS dispersion for oral administration.\nMean data of uric acid levels per dose group are given as follows: • SDD fasted: Table 5 • SDD fed and fasted Table 6 • TS Table 7"}, "uric acid in blood [2]": {"system": "uric acid in blood", "assay": "Multiple dose study (TS, 14 days): uric acid in blood of healthy and elderly subjects", "assay_type": "in vivo, human", "method": "as §1\n(§2) Multiple oral doses of 4-[2-(5-amino-1H-pyrazol-4-yl)-4-chlorophenoxy]-5-chloro-2-fluoro-N-(1,3-thiazol-4-yl)benzenesulfonamide TS dispersion for oral administration, and placebo, were investigated for 14 days, as follows: • healthy subjects, 300 mg twice daily (BID,) • healthy subjects, 450 mg BID, and • elderly subjects, 300 mg BID.\n(§3) Subjects were fasted overnight prior to the morning doses and for at least 2 hours prior to the evening doses. Food was withheld for at least 2 hours postdose.\nA total of 49 subjects were enrolled in the study of which 39 received 4-[2-(5-amino-1H-pyrazol-4-yl)-4-chlorophenoxy]-5-chloro-2-fluoro-N-(1,3-thiazol-4-yl)benzenesulfonamide TS and 10 received placebo."}, "uric acid in urine [3]": {"system": "uric acid in urine", "assay": "Multiple dose study (TS, 14 days): fraction of uric acid excreted in urine", "assay_type": "in vivo, human", "conditions": "urine", "method": "as §2, §3\nUric acid was also measured in urine collected over 24 hours prior to dosing on Day 1, and then on Days 6, 14 and 16. The percent excreted fraction of uric acid in urine was calculated and analyzed with a linear mixed effects model."}, "[4]": {"assay": "Stability of the tosylate salt versus free base and other salts", "assay_type": "physicochemical"}, "[5]": {"assay": "Aqueous solubility of the tosylate salt", "assay_type": "physicochemical"}, "uric acid in urine [6]": {"system": "uric acid in urine", "assay": "Multiple dose study (TS, 14 days): fraction of uric acid excreted in urine", "assay_type": "in vivo, human", "conditions": "day 10"}, "[7]": {"conditions": "TS oral 300 mg BID, elderly subjects, day 6"}, "[8]": {"conditions": "TS oral 300 mg BID, elderly subjects, day 14"}, "[9]": {"conditions": "TS oral 300 mg BID, healthy subjects, day 6"}, "[10]": {"conditions": "TS oral 300 mg BID, healthy subjects, day 14"}, "[11]": {"conditions": "TS oral 450 mg BID, healthy subjects, day 6"}, "[12]": {"conditions": "TS oral 450 mg BID, healthy subjects, day 14"}},
  "data": [
    {"smiles": "Cc1ccc(S(=O)(=O)O)cc1.Nc1[nH]ncc1-c1cc(Cl)ccc1Oc1cc(F)c(S(=O)(=O)Nc2cscn2)cc1Cl", "note": "[TS, 4-[2-(5-amino-1H-pyrazol-4-yl)-4-chlorophenoxy]-5-chloro-2-fluoro-N-(1,3-thiazol-4-yl)benzenesulfonamide tosylate]", "values": [
      {"measurement": "Mean uric acid", "setting": "uric acid in blood [1]; TS oral single dose 200 mg, 0 hours", "value": 5.92, "unit": "mg/dL"},
      {"measurement": "Mean uric acid", "setting": "uric acid in blood [1]; TS oral single dose 200 mg, 48 hours", "value": 5.43, "unit": "mg/dL"},
      {"measurement": "Mean uric acid", "setting": "uric acid in blood [1]; TS oral single dose 600 mg, 0 hours", "value": 6.21, "unit": "mg/dL"},
      {"measurement": "Mean uric acid", "setting": "uric acid in blood [1]; TS oral single dose 600 mg, 48 hours", "value": 5.04, "unit": "mg/dL"},
      {"measurement": "Mean uric acid", "setting": "uric acid in blood [1]; TS oral single dose 1000 mg, 0 hours", "value": 6.40, "unit": "mg/dL"},
      {"measurement": "Mean uric acid", "setting": "uric acid in blood [1]; TS oral single dose 1000 mg, 48 hours", "value": 4.86, "unit": "mg/dL"},
      {"measurement": "Mean uric acid", "setting": "uric acid in blood [2]; TS oral 300 mg BID for 14 days, elderly subjects, day 0", "value": 5.43, "unit": "mg/dL"},
      {"measurement": "Mean uric acid", "setting": "uric acid in blood [2]; TS oral 300 mg BID for 14 days, healthy subjects, day 0", "value": 5.56, "unit": "mg/dL"},
      {"measurement": "Mean uric acid", "setting": "uric acid in blood [2]; TS oral 300 mg BID, elderly subjects, day 3", "value": 3.41, "unit": "mg/dL"},
      {"measurement": "Mean uric acid", "setting": "uric acid in blood [2]; [7]", "value": 2.99, "unit": "mg/dL"},
      {"measurement": "Mean uric acid", "setting": "uric acid in blood [2]; TS oral 300 mg BID, elderly subjects, day 8", "value": 3.57, "unit": "mg/dL"},
      {"measurement": "Mean uric acid", "setting": "uric acid in blood [2]; TS oral 300 mg BID, elderly subjects, day 10", "value": 3.37, "unit": "mg/dL"},
      {"measurement": "Mean uric acid", "setting": "uric acid in blood [2]; [8]", "value": 3.59, "unit": "mg/dL"},
      {"measurement": "Mean uric acid", "setting": "uric acid in blood [2]; TS oral 300 mg BID, healthy subjects, day 3", "value": 3.50, "unit": "mg/dL"},
      {"measurement": "Mean uric acid", "setting": "uric acid in blood [2]; [9]", "value": 3.23, "unit": "mg/dL"},
      {"measurement": "Mean uric acid", "setting": "uric acid in blood [2]; TS oral 300 mg BID, healthy subjects, day 8", "value": 3.54, "unit": "mg/dL"},
      {"measurement": "Mean uric acid", "setting": "uric acid in blood [2]; TS oral 300 mg BID, healthy subjects, day 10", "value": 3.79, "unit": "mg/dL"},
      {"measurement": "Mean uric acid", "setting": "uric acid in blood [2]; [10]", "value": 3.78, "unit": "mg/dL"},
      {"measurement": "Mean uric acid", "setting": "uric acid in blood [2]; TS oral 450 mg BID for 14 days, healthy subjects, day 0", "value": 5.89, "unit": "mg/dL"},
      {"measurement": "Mean uric acid", "setting": "uric acid in blood [2]; TS oral 450 mg BID, healthy subjects, day 3", "value": 3.05, "unit": "mg/dL"},
      {"measurement": "Mean uric acid", "setting": "uric acid in blood [2]; [11]", "value": 3.00, "unit": "mg/dL"},
      {"measurement": "Mean uric acid", "setting": "uric acid in blood [2]; TS oral 450 mg BID, healthy subjects, day 8", "value": 3.21, "unit": "mg/dL"},
      {"measurement": "Mean uric acid", "setting": "uric acid in blood [2]; TS oral 450 mg BID, healthy subjects, day 10", "value": 3.45, "unit": "mg/dL"},
      {"measurement": "Mean uric acid", "setting": "uric acid in blood [2]; [12]", "value": 3.56, "unit": "mg/dL"},
      {"measurement": "Fraction excreted of uric acid", "setting": "uric acid in urine [3]; TS oral 300 mg BID, elderly subjects, day 1", "value": 6.17, "unit": "%"},
      {"measurement": "Fraction excreted of uric acid", "setting": "uric acid in urine [3]; [7]", "value": 13.79, "unit": "%"},
      {"measurement": "Fraction excreted of uric acid", "setting": "uric acid in urine [3]; [8]", "value": 7.66, "unit": "%"},
      {"measurement": "Fraction excreted of uric acid", "setting": "uric acid in urine [3]; TS oral 300 mg BID, healthy subjects, day 1", "value": 8.44, "unit": "%"},
      {"measurement": "Fraction excreted of uric acid", "setting": "uric acid in urine [3]; [9]", "value": 17.41, "unit": "%"},
      {"measurement": "Fraction excreted of uric acid", "setting": "uric acid in urine [3]; [10]", "value": 6.43, "unit": "%"},
      {"measurement": "Fraction excreted of uric acid", "setting": "uric acid in urine [3]; TS oral 450 mg BID, healthy subjects, day 1", "value": 8.61, "unit": "%"},
      {"measurement": "Fraction excreted of uric acid", "setting": "uric acid in urine [3]; [11]", "value": 19.81, "unit": "%"},
      {"measurement": "Fraction excreted of uric acid", "setting": "uric acid in urine [3]; [12]", "value": 7.69, "unit": "%"},
      {"measurement": "solid form stability", "setting": "[4]; crystalline form, versus free base", "value": "better solid form stability than the free base"},
      {"measurement": "stability with regard to disassociation", "setting": "[4]; versus other salts", "value": "greater stability with regard to disassociation than other salts"},
      {"measurement": "chemical stability", "setting": "[4]; with regard to formulation and storage, versus free base", "value": "improved chemical stability over the free base"},
      {"measurement": "aqueous solubility", "setting": "[5]", "value": "good aqueous solubility"},
      {"measurement": "Fraction excreted of uric acid", "setting": "uric acid in urine [6]; TS oral 300 mg BID, elderly subjects", "value": 13.02, "unit": "%"},
      {"measurement": "Fraction excreted of uric acid", "setting": "uric acid in urine [6]; TS oral 300 mg BID, healthy subjects", "value": 14.99, "unit": "%"},
      {"measurement": "Fraction excreted of uric acid", "setting": "uric acid in urine [6]; TS oral 450 mg BID, healthy subjects", "value": 17.09, "unit": "%"}
    ]}
  ]
}
